Test results taken from PubChem BioAssay AID1919010 (Molecular Pharmacology Branch, DTP, NCI, 2023).

System: Hs578T complex spheroid growth, percent test/control
Assay: Anticancer human tumor Hs578T cell line growth inhibition [AhR];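 note: luminescent viability signal as a proxy for spheroid growth; spheroids exposed to agents for one week after three days of growth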
Details: for IC50: curve of first compound; for viability, T/C: stronger effect = lower value
How it was run: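 Complex tumor spheroids co-cultured with HUVEC and human MSC stroma; AhR antagonists tested in combination with standard-of-care and investigational agents. Top concentration at or near clinical Cmax (else 10 microM), half-log dilutions; growth expressed as percent test/control.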

[1] = second compound 0.1 µM, first compound 0.0316 µM
[2] = second compound 0.1 µM, first compound 0.1 µM
[3] = second compound 0.1 µM, first compound 0.316 µM
[4] = second compound 0.1 µM, first compound 1 µM
[5] = second compound 0.1 µM, first compound 3.16 µM
[6] = second compound 0.1 µM, first compound 10 µM
[7] = second compound 0.316 µM, first compound 0.0316 µM
[8] = second compound 0.316 µM, first compound 0.1 µM
[9] = second compound 0.316 µM, first compound 0.316 µM
[10] = second compound 0.316 µM, first compound 1 µM
[11] = second compound 0.316 µM, first compound 3.16 µM
[12] = second compound 0.316 µM, first compound 10 µM
[13] = second compound 1 µM, first compound 0.0316 µM
[14] = second compound 1 µM, first compound 0.1 µM
[15] = second compound 1 µM, first compound 0.316 µM
[16] = second compound 1 µM, first compound 1 µM
[17] = second compound 1 µM, first compound 3.16 µM
[18] = second compound 1 µM, first compound 10 µM
[19] = second compound 3.16 µM, first compound 0.0316 µM
[20] = second compound 3.16 µM, first compound 0.1 µM
[21] = second compound 3.16 µM, first compound 0.316 µM
[22] = second compound 3.16 µM, first compound 1 µM
[23] = second compound 3.16 µM, first compound 3.16 µM
[24] = second compound 3.16 µM, first compound 10 µM
[25] = second compound 10 µM, first compound 0.0316 µM
[26] = second compound 10 µM, first compound 0.1 µM
[27] = second compound 10 µM, first compound 0.316 µM
[28] = second compound 10 µM, first compound 1 µM
[29] = second compound 10 µM, first compound 3.16 µM
[30] = second compound 10 µM, first compound 10 µM

Compound CCc1c2c(nc3ccc(O)cc13)-c1cc3c(c(=O)n1C2)COC(=O)[C@]3(O)CC + CC(CO)NC(=O)c1cc(-c2ccc(Cl)cc2)nn(-c2cnn(C)c2)c1=O has an IC50 (second compound 0.1 µM) of 207 nM, an IC50 (second compound 0.316 µM) of 158 nM and an IC50 (second compound 1 µM) of 182 nM. It also gave an IC50 (second compound 3.16 µM) of 193 nM, an IC50 (second compound 10 µM) of 194 nM and a viability, T/C (second compound 0.1 µM, first compound 0.000949 µM) of 87.1%. It also gave a viability, T/C (second compound 0.1 µM, first compound 0.003 µM) of 86.2%, a viability, T/C (second compound 0.1 µM, first compound 0.00949 µM) of 78.3% and a viability, T/C (second compound 0.1 µM, first compound 0.03 µM) of 76.7%. The viability, T/C (second compound 0.1 µM, first compound 0.0949 µM) was 65%, the viability, T/C (second compound 0.1 µM, first compound 0.3 µM) was 42.7% and the viability, T/C (second compound 0.316 µM, first compound 0.000949 µM) was 79.3%. It also gave a viability, T/C (second compound 0.316 µM, first compound 0.003 µM) of 88%, a viability, T/C (second compound 0.316 µM, first compound 0.00949 µM) of 82.3% and a viability, T/C (second compound 0.316 µM, first compound 0.03 µM) of 66.3%. The viability, T/C (second compound 0.316 µM, first compound 0.0949 µM) was 58.2%, the viability, T/C (second compound 0.316 µM, first compound 0.3 µM) was 42% and the viability, T/C (second compound 1 µM, first compound 0.000949 µM) was 81.6%. The viability, T/C (second compound 1 µM, first compound 0.003 µM) was 85%, the viability, T/C (second compound 1 µM, first compound 0.00949 µM) was 86.2% and the viability, T/C (second compound 1 µM, first compound 0.03 µM) was 72.5%. The viability, T/C (second compound 1 µM, first compound 0.0949 µM) was 59.1%, the viability, T/C (second compound 1 µM, first compound 0.3 µM) was 43.5% and the viability, T/C (second compound 3.16 µM, first compound 0.000949 µM) was 89.3%. For the same compound, the viability, T/C (second compound 3.16 µM, first compound 0.003 µM) was 94.5%, the viability, T/C (second compound 3.16 µM, first compound 0.00949 µM) was 89.9% and the viability, T/C (second compound 3.16 µM, first compound 0.03 µM) was 74.9%. For the same compound, the viability, T/C (second compound 3.16 µM, first compound 0.0949 µM) was 57.5%, the viability, T/C (second compound 3.16 µM, first compound 0.3 µM) was 45.5% and the viability, T/C (second compound 10 µM, first compound 0.000949 µM) was 82.5%. For the same compound, the viability, T/C (second compound 10 µM, first compound 0.003 µM) was 82.7%, the viability, T/C (second compound 10 µM, first compound 0.00949 µM) was 78.1% and the viability, T/C (second compound 10 µM, first compound 0.03 µM) was 73.3%. For the same compound, the viability, T/C (second compound 10 µM, first compound 0.0949 µM) was 64.8% and the viability, T/C (second compound 10 µM, first compound 0.3 µM) was 41.2%.

O=C(c1cc(Cc2n[nH]c(=O)c3ccccc23)ccc1F)N1CCN(C(=O)C2CC2)CC1 + CC(CO)NC(=O)c1cc(-c2ccc(Cl)cc2)nn(-c2cnn(C)c2)c1=O was tested, and the IC50 (second compound 0.1 µM) was > 10000 nM, the IC50 (second compound 0.316 µM) was > 10000 nM and the IC50 (second compound 1 µM) was > 10000 nM. For the same compound, the IC50 (second compound 3.16 µM) was > 10000 nM, the IC50 (second compound 10 µM) was > 10000 nM and the viability, T/C [1] was 113%. The viability, T/C [2] was 112%, the viability, T/C [3] was 109% and the viability, T/C [4] was 104%. The viability, T/C [5] was 96.3%, the viability, T/C [6] was 93.5% and the viability, T/C [7] was 110%. The viability, T/C [8] was 115%, the viability, T/C [9] was 114% and the viability, T/C [10] was 104%. It also gave a viability, T/C [11] of 98.9%, a viability, T/C [12] of 89.7% and a viability, T/C [13] of 106%. It also gave a viability, T/C [14] of 113%, a viability, T/C [15] of 121% and a viability, T/C [16] of 108%. It also gave a viability, T/C [17] of 110%, a viability, T/C [18] of 94.7% and a viability, T/C [19] of 122%. It also gave a viability, T/C [20] of 124%, a viability, T/C [21] of 126% and a viability, T/C [22] of 105%. For the same compound, the viability, T/C [23] was 106%, the viability, T/C [24] was 88.5% and the viability, T/C [25] was 96.2%. For the same compound, the viability, T/C [26] was 107%, the viability, T/C [27] was 112% and the viability, T/C [28] was 101%. It also gave a viability, T/C [29] of 99.9% and a viability, T/C [30] of 86.9%.

COc1cccc2c1C(=O)c1c(O)c3c(c(O)c1C2=O)CC(O)(C(=O)CO)CC3OC1CC(N)C(O)C(C)O1 (stereo not given) + Cc1cncc(-c2nc(NCCc3c[nH]c4ccccc34)c3ncn(C(C)C)c3n2)c1 was tested, and the IC50 (second compound 0.1 µM) was 561 nM, the IC50 (second compound 0.316 µM) was 480 nM and the IC50 (second compound 1 µM) was 363 nM. The IC50 (second compound 3.16 µM) was 315 nM, the IC50 (second compound 10 µM) was < 31.6 nM and the viability, T/C [1] was 90.3%. For the same compound, the viability, T/C [2] was 87.7%, the viability, T/C [3] was 73.5% and the viability, T/C [4] was 26.6%. The viability, T/C [5] was 3.41%, the viability, T/C [6] was 3.51% and the viability, T/C [7] was 97.1%. The viability, T/C [8] was 87.5%, the viability, T/C [9] was 68.2% and the viability, T/C [10] was 19.3%. The viability, T/C [11] was 3.19%, the viability, T/C [12] was 3.19% and the viability, T/C [13] was 92.9%. The viability, T/C [14] was 80.5%, the viability, T/C [15] was 56.7% and the viability, T/C [16] was 12.3%. The viability, T/C [17] was 2.37%, the viability, T/C [18] was 2.76% and the viability, T/C [19] was 62.1%. It also gave a viability, T/C [20] of 52.9%, a viability, T/C [21] of 50.1% and a viability, T/C [22] of 5.82%. It also gave a viability, T/C [23] of 1.65%, a viability, T/C [24] of 1.75% and a viability, T/C [25] of 6.81%. It also gave a viability, T/C [26] of 6.99%, a viability, T/C [27] of 11.9% and a viability, T/C [28] of 0.55%. For the same compound, the viability, T/C [29] was 0.74% and the viability, T/C [30] was 0.83%.

For Cn1ncnc1C1c2n[nH]c(=O)c3cc(F)cc(c23)NC1c1ccc(F)cc1 (stereo not given) + CC(CO)NC(=O)c1cc(-c2ccc(Cl)cc2)nn(-c2cnn(C)c2)c1=O, the IC50 (second compound 0.1 µM) was > 100 nM, the IC50 (second compound 0.316 µM) was > 100 nM and the IC50 (second compound 1 µM) was > 100 nM. The IC50 (second compound 3.16 µM) was > 100 nM, the IC50 (second compound 10 µM) was > 100 nM and the viability, T/C (second compound 0.1 µM, first compound 0.000316 µM) was 111%. The viability, T/C (second compound 0.1 µM, first compound 0.001 µM) was 118%, the viability, T/C (second compound 0.1 µM, first compound 0.00316 µM) was 117% and the viability, T/C (second compound 0.1 µM, first compound 0.01 µM) was 109%. It also gave a viability, T/C [1] of 117%, a viability, T/C [2] of 120% and a viability, T/C (second compound 0.316 µM, first compound 0.000316 µM) of 110%. It also gave a viability, T/C (second compound 0.316 µM, first compound 0.001 µM) of 115%, a viability, T/C (second compound 0.316 µM, first compound 0.00316 µM) of 125% and a viability, T/C (second compound 0.316 µM, first compound 0.01 µM) of 118%. For the same compound, the viability, T/C [7] was 118%, the viability, T/C [8] was 108% and the viability, T/C (second compound 1 µM, first compound 0.000316 µM) was 112%. It also gave a viability, T/C (second compound 1 µM, first compound 0.001 µM) of 131%, a viability, T/C (second compound 1 µM, first compound 0.00316 µM) of 127% and a viability, T/C (second compound 1 µM, first compound 0.01 µM) of 109%. For the same compound, the viability, T/C [13] was 117%, the viability, T/C [14] was 109% and the viability, T/C (second compound 3.16 µM, first compound 0.000316 µM) was 108%. It also gave a viability, T/C (second compound 3.16 µM, first compound 0.001 µM) of 127%, a viability, T/C (second compound 3.16 µM, first compound 0.00316 µM) of 140% and a viability, T/C (second compound 3.16 µM, first compound 0.01 µM) of 114%. The viability, T/C [19] was 118%, the viability, T/C [20] was 118% and the viability, T/C (second compound 10 µM, first compound 0.000316 µM) was 95.1%. For the same compound, the viability, T/C (second compound 10 µM, first compound 0.001 µM) was 110%, the viability, T/C (second compound 10 µM, first compound 0.00316 µM) was 104% and the viability, T/C (second compound 10 µM, first compound 0.01 µM) was 95.6%. For the same compound, the viability, T/C [25] was 109% and the viability, T/C [26] was 118%.

COc1ccc([C@@H](O)c2cc(-c3ncnc4cc(N5CCOCC5)ccc34)c(F)cc2Cl)nn1 + CC(CO)NC(=O)c1cc(-c2ccc(Cl)cc2)nn(-c2cnn(C)c2)c1=O showed an IC50 (second compound 0.1 µM) of 5550 nM, an IC50 (second compound 0.316 µM) of 4860 nM and an IC50 (second compound 1 µM) of 6020 nM. It also gave an IC50 (second compound 3.16 µM) of 4180 nM, an IC50 (second compound 10 µM) of 4860 nM and a viability, T/C [1] of 109%. For the same compound, the viability, T/C [2] was 111%, the viability, T/C [3] was 105% and the viability, T/C [4] was 89.2%. It also gave a viability, T/C [5] of 64.2%, a viability, T/C [6] of 35.7% and a viability, T/C [7] of 113%. For the same compound, the viability, T/C [8] was 115%, the viability, T/C [9] was 104% and the viability, T/C [10] was 87.2%. It also gave a viability, T/C [11] of 57.8%, a viability, T/C [12] of 36.7% and a viability, T/C [13] of 117%. It also gave a viability, T/C [14] of 112%, a viability, T/C [15] of 102% and a viability, T/C [16] of 85.8%. The viability, T/C [17] was 65.1%, the viability, T/C [18] was 38.3% and the viability, T/C [19] was 111%. It also gave a viability, T/C [20] of 106%, a viability, T/C [21] of 102% and a viability, T/C [22] of 84%. It also gave a viability, T/C [23] of 52.9%, a viability, T/C [24] of 38.7% and a viability, T/C [25] of 95.6%. For the same compound, the viability, T/C [26] was 97.5%, the viability, T/C [27] was 99.9% and the viability, T/C [28] was 82.5%. The viability, T/C [29] was 56.9% and the viability, T/C [30] was 39.5%.
